Laboratory results published in patent US8247530B2, “N-alkylated cyclic peptide melanocortin agonists” (Palatin Technologies, Inc., priority 2005, dated 2012).

Columns and labels:
[1] = biological target: T1, hMC3-R (HEK-293 cells) (Homo sapiens, UniProt P41968); experiment: cAMP functional assay for agonist/antagonist status, MC3-R; format: cell-based; conditions: for EC50: cAMP accumulation; for agonist/antagonist status as to MC3-R: cAMP assay; for efficacy relative to NDP-α-MSH, MC3-R: cAMP response ratio to NDP-α-MSH
T1 construct: expressed in transfected cells; host or cells: HEK-293
Experimental: (§1) Functional evaluation of peptides at melanocortin receptors was performed by measuring the accumulation of intracellular cAMP in HEK-293 cells expressing hMC3-R, hMC4-R or hMC5-R, and in B-16 mouse melanoma cells expressing MC1-R. Cells suspended in Earle's Balanced Salt Solution containing 10 mM HEPES (pH 7.5), 5 mM MgCl2, 1 mM glutamine, 0.5% albumin and 0.3 mM 3-isobutyl-1-methyl-xanthine, a phosphodiesterase inhibitor, were plated in 96 well plates at a density of 0.5×10^5 cells per well. Cells were incubated with the test peptides in the presence or absence of NDP-α-MSH for 1 hour at 37° C. cAMP levels in the cell lysates were measured using an EIA kit (Amersham). Data analysis and EC50 values were determined using nonlinear regression analysis with Prism Graph-Pad software.
(§2) The agonist/antagonist status with respect to MC1-R, MC4-R and MC5-R of certain peptides of the invention was determined. Antagonistic activity was determined by measuring the inhibition of α-MSH-induced or NDP-α-MSH-induced cAMP levels following exposure to the peptides as in the preceding descriptions.

[2] = biological target: T2, MC4-R (Homo sapiens, UniProt P32245); experiment: Competitive inhibition Ki (AgRP), MC4-R; format: binding; conditions: AgRP as competing ligand
T2 construct: expressed in transfected cells; host or cells: HEK-293

[3] = biological target: T3, MC3-R (Homo sapiens, UniProt P41968); experiment: Competitive inhibition binding assay using [I125]-NDP-α-MSH, hMC3-R; conditions: radioligand [I125]-NDP-α-MSH, HEK-293 membranes; read-out: Ki (NDP-α-MSH) MC3-R
T3 construct: expressed in transfected cells; host or cells: HEK-293
Experimental: (§3) The assay tube also contained a chosen concentration of the test peptide of this invention, typically a 1 μM concentration, for determining its efficacy in inhibiting the binding of [I^125]NDP-α-MSH to the receptor.
(§4) The assay mixture was incubated for 60 minutes at 37° C., then filtered and the membranes washed three times with ice cold phosphate buffered saline. The filter was dried and counted in a gamma counter for remaining radioactivity bound to the membranes. 100% specific binding was defined as the difference in radioactivity (cpm) bound to cell membranes in the absence and presence of 1 μM NDP-α-MSH. […] Each assay was conducted in triplicate. The Ki (nM) of certain peptides of the invention were determined using similar assay protocols and testing peptides over a wider dose range.

[4] = tested on: male Sprague-Dawley rats; experiment: Penile erection induction in male rats; format: in vivo, rat
Experimental: The ability of peptides to induce penile erection (PE) in male rats was evaluated with selected peptides. Male Sprague-Dawley rats weighing 200-250 g were kept on a 12 hour on/off light cycle with food and water ad libitum. All behavioral studies were performed between 10 a.m. and 5 p.m. Groups of 4-8 rats were administered peptides at a variety of doses via an intravenous (IV) route, and may alternatively be administered peptide by an intracerebroventricular (ICV) route. Immediately after treatment, rats were placed into individual polystyrene cages (27 cm long, 16 cm wide, and 25 cm high) for behavioral observation. […] For rats administered peptide by an ICV routes, rats are observed for two hours.
Selected peptides were tested as in Example 5. Peptide was administered by IV routes, and used at dose levels ranging from 1 μg/kg to 1000 μg/kg.

[5] = biological target: T2, MC4-R; experiment: Competitive inhibition binding assay using [I125]-NDP-α-MSH, hMC4-R; conditions: radioligand [I125]-NDP-α-MSH, HEK-293 membranes; read-out: Ki (NDP-α-MSH) MC4-R
Experimental: as §3, §4

[6] = biological target: T4, hMC4-R (HEK-293 cells) (Homo sapiens, UniProt P32245); experiment: cAMP functional assay for agonist/antagonist status, MC4-R; format: cell-based; conditions: for agonist/antagonist status as to MC4-R: cAMP assay; for efficacy relative to NDP-α-MSH, MC4-R: cAMP response ratio to NDP-α-MSH
T4 construct: expressed in transfected cells; host or cells: HEK-293
Experimental: as §1, §2
Evaluation of the molecules to elicit a functional response in HEK-293 cells expressing hMC4-R for agonistic activity was done by measuring the accumulation of intracellular cAMP following treatment. Confluent HEK-293 cells over-expressing MC4-R receptors were detached by enzyme free cell suspension buffer. Cells were suspended in Earle's Balanced Salt Solution containing 10 mM HEPES (pH 7.5), 1 mM MgCl2, 1 mM glutamine, 0.5% albumin and 0.3 mM 3-isobutyl-1-methyl-[…]. The cells were plated in a 96 well plate at a density of 0.5×10^5 cells per well and pre-incubated for 60 minutes. The cells were then challenged with the test peptides dissolved in dimethylsulfoxide (DMSO) at a concentration range of 0.05-5000 nM in a total assay volume of 200 μL for 1 hour at 37° C. The concentration of DMSO was held at 1% in the assay mixture. NDP-α-MSH was used as the reference agonist. At the end of the incubation period the cells were disrupted by the addition of 50 μL lysis buffer from the cAMP EIA kit (Amersham). Complete rupture of the cells was ensured by pipetting the cells. cAMP levels in the cell lysates were measured after appropriate dilution using the EIA kit (Amersham) method. Data analysis and EC50 values were determined by using nonlinear regression analysis with the Prism Graph-Pad software.

[7] = biological target: T5, hMC5-R (Homo sapiens, UniProt P33032); experiment: Competitive inhibition binding assay using [I125]-NDP-α-MSH, hMC5-R; conditions: radioligand [I125]-NDP-α-MSH, HEK-293 membranes; read-out: Ki (NDP-α-MSH) MC5-R
T5 construct: expressed in transfected cells; host or cells: HEK-293
Experimental: as §3, §4

[8] = biological target: T6, MC1-R (B-16 mouse melanoma cells) (Mus musculus, UniProt Q01727); experiment: cAMP functional assay for agonist/antagonist status, MC1-R; format: cell-based; conditions: for EC50: cAMP accumulation; for agonist/antagonist status as to MC1-R: cAMP assay; for efficacy relative to NDP-α-MSH, MC1-R: cAMP response ratio to NDP-α-MSH
T6 construct: B-16 mouse melanoma cells (containing MC1-R); endogenous in cells; host or cells: B-16 mouse melanoma cells
Experimental: Data analysis and EC50 values were determined using nonlinear regression analysis with Prism Graph-Pad software.
The agonist/antagonist status with respect to MC1-R, MC4-R and MC5-R of certain peptides of the invention was determined.

[9] = biological target: T3, MC3-R; experiment: Competitive inhibition Ki (AgRP), MC3-R; format: binding; conditions: AgRP as competing ligand
Experimental: as §4

[10] = 1000 μg/kg IV, groups of 6 rats, one hour observation
[11] = peak dose 300 μg/kg IV, groups of 6 rats

T4 sequence (P32245 whole entry): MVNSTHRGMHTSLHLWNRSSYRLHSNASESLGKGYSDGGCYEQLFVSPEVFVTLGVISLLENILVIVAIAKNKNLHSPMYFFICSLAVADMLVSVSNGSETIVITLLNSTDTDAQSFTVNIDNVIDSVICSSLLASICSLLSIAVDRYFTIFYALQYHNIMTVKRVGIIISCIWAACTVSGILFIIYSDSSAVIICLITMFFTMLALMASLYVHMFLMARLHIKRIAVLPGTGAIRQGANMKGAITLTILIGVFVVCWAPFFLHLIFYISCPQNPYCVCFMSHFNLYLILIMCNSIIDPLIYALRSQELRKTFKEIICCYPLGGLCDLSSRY
T2 sequence (P32245 whole entry): as above
T3 sequence (P41968 whole entry): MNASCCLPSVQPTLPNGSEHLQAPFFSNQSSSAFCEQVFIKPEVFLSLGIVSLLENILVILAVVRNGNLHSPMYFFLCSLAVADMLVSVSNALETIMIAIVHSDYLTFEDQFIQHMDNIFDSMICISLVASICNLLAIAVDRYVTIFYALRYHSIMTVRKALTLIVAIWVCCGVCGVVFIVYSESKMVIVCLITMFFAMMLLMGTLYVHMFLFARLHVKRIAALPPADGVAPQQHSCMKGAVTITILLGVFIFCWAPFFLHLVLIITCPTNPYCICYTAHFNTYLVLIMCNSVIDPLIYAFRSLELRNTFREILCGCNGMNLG
T1 sequence (P41968 whole entry): as above
T6 sequence (Q01727 whole entry): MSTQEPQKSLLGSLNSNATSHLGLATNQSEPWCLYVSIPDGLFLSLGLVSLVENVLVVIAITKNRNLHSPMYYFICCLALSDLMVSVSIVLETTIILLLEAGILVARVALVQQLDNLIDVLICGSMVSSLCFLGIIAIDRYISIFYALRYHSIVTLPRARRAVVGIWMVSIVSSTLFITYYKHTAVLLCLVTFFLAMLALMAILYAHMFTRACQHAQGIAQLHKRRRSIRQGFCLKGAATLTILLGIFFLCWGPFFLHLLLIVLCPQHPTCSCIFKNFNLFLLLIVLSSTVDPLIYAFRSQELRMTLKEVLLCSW
T5 sequence (P33032 whole entry): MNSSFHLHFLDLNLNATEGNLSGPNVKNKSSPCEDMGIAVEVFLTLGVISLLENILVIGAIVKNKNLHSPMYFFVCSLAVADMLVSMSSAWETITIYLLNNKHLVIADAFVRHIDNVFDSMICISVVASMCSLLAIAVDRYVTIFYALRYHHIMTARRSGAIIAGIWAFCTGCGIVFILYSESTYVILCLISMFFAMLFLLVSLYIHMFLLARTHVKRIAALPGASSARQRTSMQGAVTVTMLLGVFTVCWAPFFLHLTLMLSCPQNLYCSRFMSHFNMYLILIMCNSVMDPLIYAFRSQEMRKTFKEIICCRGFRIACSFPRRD

Row | EC50 [1] [µM] | Ki [2] [µM] | Ki [3] [µM] | Ki [5] [µM] | EC50 ([6]; cAMP accumulation) [µM] | Ki [7] [µM] | efficacy relative to NDP-α-MSH, MC3-R [1] | EC50 [8] [µM] | efficacy relative to NDP-α-MSH, MC1-R [8] | efficacy relative to NDP-α-MSH, MC4-R [6] | Ki [9] [µM] | Compound | agonist/antagonist status as to MC3-R [1] | rats exhibiting at least one PE [4, 10] [%] | agonist/antagonist status as to MC4-R [6] | agonist/antagonist status as to MC1-R [8] | PE effect at 300 μg/kg compared with 1000 μg/kg ([4]; peak dose 300 μg/kg IV) | mean PEs per rat [4, 11] | rats exhibiting at least one PE [4, 11] [%]
1 | 0.017 | 0.0005 | 0.008 | 0.00027 | 0.0002 | 0.007 |  |  |  |  |  | CCCC[C@H](NC(C)=O)C(=O)N[C@H]1CC(=O)NCCCC[C@@H](C(=O)N(C)C)NC(=O)[C@H](Cc2c[nH]c3ccccc23)NC(=O)[C@H](CCCNC(=N)N)NC(=O)[C@@H](Cc2ccccc2)NC(=O)[C@H](Cc2c[nH]cn2)NC1=O [Example 8, Ac-Nle-cyclo(-Asp-His-D-Phe-Arg-Trp-Lys)-N(CH3)2] | agonist (response ratio compared to NDP-α-MSH of 0.7 and above were classified as full agonists) | 100 | agonist (response ratio compared to NDP-α-MSH of 0.7 and above were classified as full agonists) |  |  |  | 
2 | 0.394 | 0.01 |  |  |  |  | 1.1 | 0.015 | 0.8 | 0.7 | > 1 | CCCC[C@H](NC(C)=O)C(=O)N[C@H]1CC(=O)NCCCC[C@@H](C(=O)N(C)C)NC(=O)[C@H](Cc2cccc3ccccc23)NC(=O)[C@H](CCCNC(=N)N)NC(=O)[C@@H](Cc2ccccc2)NC(=O)[C@H](Cc2c[nH]cn2)NC1=O [Example 11, Ac-Nle-cyclo(-Asp-His-D-Phe-Arg-Nal 1-Lys)-N(CH3)2] | agonist (response ratio compared to NDP-α-MSH of 0.7 and above were classified as full agonists) | 100 | agonist (response ratio compared to NDP-α-MSH of 0.7 and above were classified as full agonists) | agonist (response ratio compared to NDP-α-MSH of 0.7 and above were classified as full agonists) | the same |  | 
3 | 0.283 | 0.011 |  |  |  |  | 1.0 | 0.064 | 0.6 | 0.6 | 0.457 | CCNC(=O)[C@@H]1CCCCNC(=O)C[C@H](NC(C)=O)C(=O)N[C@@H](Cc2c[nH]cn2)C(=O)N[C@H](Cc2ccccc2)C(=O)N[C@@H](CCCNC(=N)N)C(=O)N[C@@H](Cc2c[nH]c3ccccc23)C(=O)N1 [Example 12, Ac-cyclo(-Asp-His-D-Phe-Arg-Trp-Lys)-NH—CH2—CH3] | agonist (response ratio compared to NDP-α-MSH of 0.7 and above were classified as full agonists) |  | partial agonist (Peptides with a ratio from 0.1 to 0.7 were classified as partial agonists) | partial agonist (Peptides with a ratio from 0.1 to 0.7 were classified as partial agonists) |  | 2.5 | 83
